Measured values from PubChem BioAssay (NCI).
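GI50 = concentration required for 50% inhibition of growth. TGI marks complete inhibition of growth.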

How the values were obtained:
Assay in all cases: NCI tumour cell line growth inhibition, 384-well format
[1] = test system: OVCAR-5 ovarian
[2] = test system: LOX IMVI melanoma
[3] = test system: OVCAR-3 ovarian
[4] = test system: HOP-92 NSCLC
[5] = test system: U251 glioblastoma
[6] = test system: SK-MEL-2 melanoma
[7] = test system: ACHN renal
[8] = test system: MDA-MB-231 breast
[9] = test system: HL-60(TB) leukemia
[10] = test system: SK-MEL-5 melanoma
[11] = test system: K-562 leukemia
[12] = test system: HCT-116 colon
[13] = test system: EKVX NSCLC
[14] = test system: NCI-H23 lung
[15] = test system: OVCAR-8 ovarian
[16] = test system: SNB-75 CNS
[17] = test system: MCF7 breast
[18] = test system: IGROV1 ovarian
[19] = test system: PC-3 prostate
[20] = test system: SK-MEL-28 melanoma
[21] = test system: BT-549 breast
[22] = test system: CCRF-CEM leukemia
[23] = test system: HCC-2998 colon
[24] = test system: NCI-H322M lung
[25] = test system: HOP-62 NSCLC
[26] = test system: UACC-62 melanoma
[27] = test system: NCI-H226 lung
[28] = test system: MALME-3M melanoma
[29] = test system: MOLT-4 leukemia
[30] = test system: NCI/ADR-RES ovarian
[31] = test system: HS 578T breast
[32] = test system: RPMI-8226 leukemia
[33] = test system: MDA-MB-468 breast
[34] = test system: SR leukemia
[35] = test system: NCI-H460 NSCLC
[36] = test system: KM12 colon
[37] = test system: UACC-257 melanoma
[38] = test system: T-47D breast
[39] = test system: SF-268 CNS
[40] = test system: SK-OV-3 ovarian
[41] = test system: SN12C renal
[42] = test system: SW-620 colon
[43] = test system: HCT-15 colon
[44] = test system: TK-10 renal
[45] = test system: 786-0 renal
[46] = test system: M14 melanoma
[47] = test system: RXF 393 renal

Cn1cc(-c2ccc3c(c2)CCN3C(=O)Cc2cccc(C(F)(F)F)c2)c2c(N)ncnc21
GI50 [1]: 15.4 µM | TGI [1]: 29 µM | GI50 [2]: 5.67 µM | TGI [2]: 18.2 µM | GI50 [3]: 8.44 µM | TGI [3]: 21.6 µM | GI50 [4]: 3.52 µM | TGI [4]: 13.3 µM | GI50 [5]: 9.54 µM | TGI [5]: 39.4 µM | GI50 [6]: 2.71 µM | TGI [6]: 12.4 µM | GI50 [7]: 2.25 µM | TGI [7]: 19.8 µM | GI50 [8]: 4.91 µM | TGI [8]: 15.6 µM | GI50 [9]: 2.21 µM | TGI [9]: 6.42 µM | GI50 [10]: 3.86 µM | TGI [10]: 9.56 µM | GI50 [11]: 2.55 µM | TGI [11]: 11.4 µM | GI50 [12]: 4.12 µM | TGI [12]: 17.1 µM | GI50 [13]: 3.03 µM | TGI [13]: 16.2 µM | GI50 [14]: 4.28 µM | TGI [14]: 15.9 µM | GI50 [15]: 5.73 µM | TGI [15]: 54.7 µM | GI50 [16]: 3.52 µM | TGI [16]: 14.2 µM | GI50 [17]: 5.82 µM | TGI [17]: 20.3 µM | GI50 [18]: 5.29 µM | TGI [18]: 49.9 µM | GI50 [19]: 9.2 µM | TGI [19]: 22.6 µM | GI50 [20]: 12.5 µM | TGI [20]: 37.3 µM | GI50 [21]: 5 µM | TGI [21]: 17.6 µM | GI50 [22]: 2.75 µM | TGI [22]: 7.98 µM | GI50 [23]: 15.5 µM | TGI [23]: 29.6 µM | GI50 [24]: 5.96 µM | TGI [24]: 27.7 µM | GI50 [25]: 10.8 µM | TGI [25]: 30.3 µM | GI50 [26]: 5.44 µM | TGI [26]: 17.9 µM | GI50 [27]: 3.82 µM | TGI [27]: 18.1 µM | GI50 [28]: 2.99 µM | TGI [28]: 13.7 µM | GI50 [29]: 2.15 µM | TGI [29]: 5.04 µM | GI50 [30]: 5.14 µM | TGI [30]: 19.7 µM | GI50 [31]: 1.7 µM | TGI [31]: 7.47 µM | GI50 [32]: 4.44 µM | TGI [32]: 16 µM | GI50 [33]: 2.86 µM | TGI [33]: 10.7 µM | GI50 [34]: 1.47 µM | TGI [34]: 3.54 µM | GI50 [35]: 3.9 µM | TGI [35]: 16.5 µM | GI50 [36]: 0.547 µM | TGI [36]: 18.2 µM | GI50 [37]: 9.73 µM | TGI [37]: 31 µM | GI50 [38]: 2.91 µM | TGI [38]: 9.03 µM | GI50 [39]: 9.26 µM | TGI [39]: 23.8 µM | GI50 [40]: 1.63 µM | TGI [40]: 11.4 µM | GI50 [41]: 1.36 µM | TGI [41]: 8.59 µM | GI50 [42]: 10.6 µM | TGI [42]: 22.9 µM | GI50 [43]: 2.69 µM | TGI [43]: 17.6 µM | GI50 [44]: 7.63 µM | TGI [44]: 26.1 µM | GI50 [45]: 3.99 µM | TGI [45]: 16.2 µM | GI50 [46]: 5.69 µM | TGI [46]: 21.5 µM | GI50 [47]: 1.82 µM | TGI [47]: 8.86 µM
